From ChEMBL document CHEMBL1221239, “Triaryl (Z)-olefins suitable for radiolabeling with carbon-11 or fluorine-18 radionuclides for positron emission tomography imaging of cyclooxygenase-2 expression in pathological disease” (Bioorg Med Chem Lett, 2010)

Assays:
[1] = biological target: T1, Prostaglandin G/H synthase 2 (Homo sapiens, UniProt P35354); experiment: Inhibition of human recombinant COX2 by EIA
T1 sequence (P35354 whole entry): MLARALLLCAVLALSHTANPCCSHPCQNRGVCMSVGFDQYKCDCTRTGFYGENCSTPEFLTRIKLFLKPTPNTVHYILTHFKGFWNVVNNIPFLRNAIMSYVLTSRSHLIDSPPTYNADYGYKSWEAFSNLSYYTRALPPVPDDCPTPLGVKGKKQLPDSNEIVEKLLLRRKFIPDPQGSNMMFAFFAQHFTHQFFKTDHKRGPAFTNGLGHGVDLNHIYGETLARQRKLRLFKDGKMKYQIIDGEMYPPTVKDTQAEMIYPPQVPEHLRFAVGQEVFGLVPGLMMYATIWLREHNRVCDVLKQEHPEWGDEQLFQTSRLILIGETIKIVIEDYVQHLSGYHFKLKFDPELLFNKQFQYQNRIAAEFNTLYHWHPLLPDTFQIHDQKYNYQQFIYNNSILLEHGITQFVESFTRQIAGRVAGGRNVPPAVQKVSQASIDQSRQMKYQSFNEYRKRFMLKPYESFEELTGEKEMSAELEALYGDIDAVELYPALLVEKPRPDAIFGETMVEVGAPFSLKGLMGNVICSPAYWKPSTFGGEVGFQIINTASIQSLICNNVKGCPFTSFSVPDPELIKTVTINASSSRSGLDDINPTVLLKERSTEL

[2] = Selectivity index, ratio of IC50 for ovine COX1 to IC50 for human recombinant COX2
[3] = biological target: T2, Prostaglandin G/H synthase 1 (Ovis aries, UniProt P05979)
T2 sequence (P05979 whole entry): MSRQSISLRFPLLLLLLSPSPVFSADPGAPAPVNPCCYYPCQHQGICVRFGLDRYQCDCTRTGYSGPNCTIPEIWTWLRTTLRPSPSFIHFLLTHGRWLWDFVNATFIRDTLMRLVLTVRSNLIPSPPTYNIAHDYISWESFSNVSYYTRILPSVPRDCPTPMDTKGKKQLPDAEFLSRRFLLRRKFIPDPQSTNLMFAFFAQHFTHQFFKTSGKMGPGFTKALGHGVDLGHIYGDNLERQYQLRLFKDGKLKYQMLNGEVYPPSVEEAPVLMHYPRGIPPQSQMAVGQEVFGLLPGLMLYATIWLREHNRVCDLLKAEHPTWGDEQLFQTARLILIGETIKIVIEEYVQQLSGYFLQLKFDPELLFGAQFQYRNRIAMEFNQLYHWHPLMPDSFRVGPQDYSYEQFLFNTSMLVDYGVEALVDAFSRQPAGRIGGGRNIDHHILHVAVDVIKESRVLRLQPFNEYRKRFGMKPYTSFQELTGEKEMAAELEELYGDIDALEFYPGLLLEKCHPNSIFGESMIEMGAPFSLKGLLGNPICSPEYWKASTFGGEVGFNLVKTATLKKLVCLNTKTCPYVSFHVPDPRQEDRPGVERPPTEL
Description: Inhibition of ovine COX1 by EIA

## CCCCC(=C(c1ccccc1)c1ccccc1)c1ccc(S(C)(=O)=O)cc1
[1]
  IC50: 2.7 µM
[2]
  Ratio IC50: 3.4
[3]
  IC50: 9.1 µM

## CCCC/C(=C(\c1ccccc1)c1ccc(OC)cc1)c1ccc(S(C)(=O)=O)cc1
[1]
  IC50: 7.7 µM
[2]
  Ratio IC50: > 13
[3]
  IC50: > 100 µM

## CS(=O)(=O)c1ccc(C(CCF)=C(c2ccccc2)c2ccccc2)cc1
[1]
  IC50: > 100 µM
[3]
  IC50: > 100 µM

## CCC(=C(c1ccccc1)c1ccccc1)c1ccc(S(C)(=O)=O)cc1
[1]
  IC50: 1.2 µM
[2]
  Ratio IC50: 26.3
[3]
  IC50: 31.6 µM

## CCCC/C(=C(\c1ccccc1)c1ccc(O)cc1)c1ccc(S(C)(=O)=O)cc1
[1]
  IC50: 11.8 µM
[2]
  Ratio IC50: > 8.5
[3]
  IC50: > 100 µM

## CC/C(=C(\c1ccccc1)c1ccc(OC)cc1)c1ccc(S(C)(=O)=O)cc1
[1]
  IC50: 10.7 µM
[2]
  Ratio IC50: > 9.3
[3]
  IC50: > 100 µM

## CCCC/C(=C(\c1ccccc1)c1ccc(OCCF)cc1)c1ccc(S(C)(=O)=O)cc1
[1]
  IC50: 22.3 µM
[2]
  Ratio IC50: > 4.5
[3]
  IC50: > 100 µM
